Measurements from patent US7253165B2, “Benzisoxazolyl-, pyridoisoxazolyl-and benzthienyl-phenoxy derivatives useful as D4 antagonists” (Aventis Pharmaceuticals Inc., priority 1999, dated 2007).

Assays:
[1] = target: T1, human D4 receptor (D4.2 sub-type) (Homo sapiens, UniProt P21917, DEL265-296); test: D4 receptor binding assay, displacement of 3H-spiperone; conditions: 3H-spiperone 0.25 nM; for Ki: membranes of HEK cells transfected with human D4.2, * = HCl salt, read-out: D4 RBA Ki; for D4 RBA % Inhibition (@ 1 μM): 1 μM test compound
T1 sequence (P21917 with tags, fused parts or gaps DEL265-296): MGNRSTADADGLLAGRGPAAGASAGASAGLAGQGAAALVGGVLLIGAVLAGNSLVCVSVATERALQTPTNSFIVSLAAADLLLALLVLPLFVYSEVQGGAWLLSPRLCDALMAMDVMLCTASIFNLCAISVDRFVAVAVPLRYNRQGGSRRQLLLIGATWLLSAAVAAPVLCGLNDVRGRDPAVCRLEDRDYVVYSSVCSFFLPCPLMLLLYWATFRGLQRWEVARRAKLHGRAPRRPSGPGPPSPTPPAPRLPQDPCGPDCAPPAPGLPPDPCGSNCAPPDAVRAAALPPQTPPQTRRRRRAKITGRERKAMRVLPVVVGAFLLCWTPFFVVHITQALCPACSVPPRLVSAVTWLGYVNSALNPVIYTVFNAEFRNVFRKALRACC
Procedure: D4 receptor-binding affinities of the compounds were evaluated according to their ability to reduce binding of ^3H-spiperone as compared to the reference compound clozapine. The potency of the test compound to reduce ^3H-spiperone binding directly correlated to its binding affinity for the receptor.
[…] (human embryonic kidney) cells stably transfected with human D4 receptor (D4.2 sub-type) were grown in NUNC cell factories for 5 days (75% confluency) without a media change and removed with versene (approximately 19 mg of cells per cell factory tray). The cells were then centrifuged in a Sorval centrifuge for 10 min, 5000 rpm (GS3 rotor) and the pellets quickly frozen in liquid nitrogen and stored at −80° C. until used in binding assay. When used in the assay, cells were thawed on ice for 20 min and then 10 mL of incubation buffer (50 mM Tris, 1 mM EDTA, 4 mM MgCl2, 5 mM KCl, 1.5 mM CaCl2, 120 mM NaCl, pH 7.4) was added. The cells were then vortexed to resuspend pellet and homogenized with a Kinematica, CH-6010 Kriens-LU, homogenizer for 15 seconds at setting 7. Concentration of receptor protein was determined using the Pierce BCA assay.
The incubation was started by the addition of 100 μl (50 μg protein) membrane homogenate to a solution of 300 μl incubation buffer and 100 μl (0.25 nM final conc.) ^3H-spiperone (90 Ci/mmol, Amersham, diluted in borosilicate glass vial) in 96-well polypropylene plates (1 ML per well). The plates were vortexed and incubated at room temperature for 90 minutes. The binding reaction was stopped by filtering using a Packard Harvester. The samples were filtered under vacuum over glass fibre filter plates (Whatman GF/B) presoaked for 2 hours in 0.3% polyethylenimine (PEI) in 50 mM Tris buffer (pH 7.4). The filters were then washed 6 times with 7 mL ice cold 50 mM Tris buffer (pH 7.4). The filter plates were dried overnight and 35 μl of Microscint-O (Packard) was added. The plates were sealed and counted in the Packard Top Count (3 minutes per well).
The incubation was started by the addition of 100 μl (50 μg protein) membrane homogenate to a solution of 200 μl incubation buffer, 100 μl ^3H-spiperone (90 Ci/mmol, Amersham, diluted in borosilicate glass vial to 0.25 nM final conc.) and 100 μl (30 μM final conc.) of fresh dopamine (Research Biochemicals Inc., light protected and dissolved in incubation buffer) in 96-well polypropylene plates (1 mL per well). The plates were vortexed and incubated at room temperature for 90 minutes at which time the binding reaction was stopped by filtering. The filters were washed and counted using the same procedure as in the total binding assay described above to give the non-specific binding value (NSB).
The incubation was started by the addition, in 96-well polypropylene plates (1 mL per well), of 100 μl (50 μg protein) membrane homogenate to a solution of 200 μl incubation buffer, 100 μl (0.25 nM final-conc.) ^3H-spiperone (90 Ci/mmol, Amersham, diluted in borosilicate glass vial) and 100 μl of test compound that was prepared from 1 mM stock dissolved in DMSO and stored at −20° C. in polypropylene cryogenic storage vials until dilution in incubation buffer in 96-well polypropylene plates. The plates were vortexed and incubated at room temperature for 90 minutes at which time the binding reaction was stopped by filtering. The filters were washed and counted using the same procedure as in the total binding assay described above to give the displacement binding value (BD).
The test compounds were initially assayed at 1 and 0.1 μM and then at a range of concentrations chosen such that the middle dose would cause about 50% inhibition of ^3H-spiperone binding. Specific binding in the absence of test compound (B0) was the difference of total binding (BT) minus non-specific binding (NSB) and similarly specific binding (in the presence of test compound) (B) was the difference of displacement binding (BD) minus non-specific binding (NSB). […]

[2] = system: MK-801 induced stereotypy (locomotion and falling behavior) in CD-1 or C57 male mice; test: MK-801 Stereotypy in Mice; conditions: In Vivo Method PO, MK-801 0.2 mg/kg; for inhibition in vivo at 20 mg/kg: Mus musculus, read-out: Antag. of MK 801 Stereotypy % Inhib. @ 20 mg/kg
Procedure: Mk-801 dose-dependently induces characteristic stereotypy marked by locomotion and falling behavior. This MK-801 induced behavior can be antagonized by novel neuroleptic agents. This assay can also assess time course effects following drug administration.
CD-1 or C57 male mice are individually placed in activity boxes (8 mice/drug) and allowed to acclimate for 60 minutes. The mice are then administered test compounds either i.p., s.c., or p.o., at 15, 30, or 60 minutes prior to MK-801 (0.2 mg/kg) administration. Mice are observed for the presence of locomotion and falling behaviors 15 minutes following MK-801. For the duration of action studies the test compounds are administered i.p., s.c., or p.o., at 30, 60, 120, 180, and 240 minutes prior to MK-801 administration.

Row | Ki [1] [nM] | Structure (SMILES) | other results
1 | 42 | CN(CCc1ccccc1)C[C@@H](O)COc1ccc(-c2noc3cc(F)ccc23)cc1 [Example 6] | –
2 | 9 | O[C@@H](COc1ccc(-c2noc3cc(F)ccc23)cc1)CN1CCN(c2ccccn2)CC1 [Example 8] | inhibition in vivo at 20 mg/kg [2]: 37.5%
3 | – | CN(CCc1ccccc1)C[C@@H](O)COc1ccc(-c2noc3cc(F)ccc23)cc1 [Example 27, (R)-1-[4-(6-fluoro-benzo[d]isoxazol-3-yl)-phenoxy]-3-(methyl-phenethyl-amino)-propan-2-ol] | D4 RBA % Inhibition (@ 1 μM) [1]: 66%
4 | – | O[C@@H](COc1ccc(-c2noc3cc(F)ccc23)cc1)CN1CCN(c2ccccn2)CC1 [Example 29, (R)-1-[4-(6-fluoro-benzo[d]isoxazol-3-yl)-phenoxy]-3-(4-pyridin-2-yl-piperazin-1-yl)-propan-2-ol] | D4 RBA % Inhibition (@ 1 μM) [1]: 41%
5 | – | O[C@@H](COc1ccc(-c2noc3cc(F)ccc23)cc1)CN1CCC(c2noc3cc(F)ccc23)CC1 [Example 34, (R)-1-[4-(6-fluoro-benzo[d]isoxazol-3-yl)-phenoxy]-3-[4-(6-fluoro-benzo[d]isoxazol-3-yl)-piperidin-1-yl]-propan-2-ol] | D4 RBA % Inhibition (@ 1 μM) [1]: 46%
6 | – | O[C@@H](COc1ccc(-c2noc3cc(F)ccc23)cc1)CN1CCC(O)(c2ccccc2)CC1 [Example 38, (R)-1-{3-[4-(6-fluoro-benzo[d]isoxazol-3-yl)-phenoxy]-2-hydroxy-propyl}-4-phenyl-piperidin-4-ol] | D4 RBA % Inhibition (@ 1 μM) [1]: 54%
7 | – | COc1cccc(CNC[C@@H](O)COc2ccc(-c3noc4cc(F)ccc34)cc2)c1 [Example 80, (R)-1-[4-(6-fluoro-benzo[d]isoxazol-3-yl)-phenoxy]-3-(3-methoxy-benzylamino)-propan-2-ol] | D4 RBA % Inhibition (@ 1 μM) [1]: 76%
8 | – | O[C@@H](COc1cccc(-c2noc3ncccc23)c1)CN1CCC(Oc2cccc(Cl)c2)CC1 [Example 102, (R)-1-[4-(3-chloro-phenoxy)-piperidin-1-yl]-3-(3-isoxazolo[5,4-b]pyridin-3-yl-phenoxy)-propan-2-ol] | D4 RBA % Inhibition (@ 1 μM) [1]: 59%
9 | 34 | CCCC1CCN(CCOc2ccc(-c3noc4cc(F)ccc34)cc2)CC1 [Example 146] | –
10 | 7.1 | Fc1ccc2c(-c3ccc(OCCN4CCC5(CC4)OCCO5)cc3)noc2c1 [Example 152] | –
11 | 3.8 | CC1CCN(CCCOc2ccc(-c3noc4cc(F)ccc34)cc2)CC1 [Example 153] | inhibition in vivo at 20 mg/kg [2]: 75%
12 | 11.2 | CCCC1CCN(CCCOc2ccc(-c3noc4cc(F)ccc34)cc2)CC1 [Example 154] | inhibition in vivo at 20 mg/kg [2]: 25%
13 | 3.88 | Fc1ccc2c(-c3ccc(OCCCN4CCCCCC4)cc3)noc2c1 [Example 156] | inhibition in vivo at 20 mg/kg [2]: 50%
14 | 8.35 | Fc1ccc2c(-c3ccc(OCCCN4CCCCCCC4)cc3)noc2c1 [Example 157] | inhibition in vivo at 20 mg/kg [2]: 50%
15 | 8.42 | Fc1ccc2c(-c3ccc(OCCCNCC4CCCCC4)cc3)noc2c1 [Example 158] | inhibition in vivo at 20 mg/kg [2]: 37.5%

Row | Structure (SMILES) | Ki [1] [nM] | other results
16 | O[C@@H](COc1cccc(-c2noc3cc(F)ccc23)c1)CN1CCN(c2ncccn2)CC1 [Example 69, (R)-1-[3-(6-fluoro-benzo[d]isoxazol-3-yl)-phenoxy]-3-(4-pyrimidin-2-yl-piperazin-1-yl)-propan-2-ol] | 14 | –
17 | O[C@H](CNC1CCc2ccccc21)COc1ccc(-c2noc3cc(F)ccc23)cc1 (stereo partly drawn) [Example 72, (R)-1-[4-(6-fluoro-benzo[d]isoxazol-3-yl)-phenoxy]-3-(indan-1-ylamino)-propan-2-ol] | 30 | –
18 | O[C@H](CNCc1cccs1)COc1ccc(-c2noc3cc(F)ccc23)cc1 [Example 73, (R)-1-[4-(6-fluoro-benzo[d]isoxazol-3-yl)-phenoxy]-3-[(thiophen-2-ylmethyl)-amino]-propan-2-ol] | 13 | –
19 | O[C@H](CNC1Cc2ccccc2C1)COc1ccc(-c2noc3cc(F)ccc23)cc1 [Example 89, (R)-1-[4-(6-fluoro-benzo[d]isoxazol-3-yl)-phenoxy]-3-(indan-2-ylamino)-propan-2-ol] | 1.3 | Antag. of MK 801 Stereotypy % Inhib. @ 20 mg/kg [2]: 25%
20 | O[C@@H](COc1ccc(-c2noc3cc(F)ccc23)cc1)CN1CCC(Oc2cccc(Cl)c2)CC1 [Example 90, (R)-1-[4-(3-chloro-phenoxy)-piperidin-1-yl]-3-[4-(6-fluoro-benzo[d]isoxazol-3-yl)-phenoxy]-propan-2-ol] | 27 | –
21 | O[C@H](CNCc1ccc(F)cc1)COc1ccc(-c2csc3ccccc23)cc1 [Example 96, (R)-1-(4-benzo[b]thiophen-3-yl-phenoxy)-3-(4-fluoro-benzylamino)-propan-2-ol] | 26 | –
22 | O[C@@H](COc1cccc(-c2noc3ncccc23)c1)CN1CCN(c2ncccn2)CC1 [Example 106, (R)-1-(3-isoxazolo[5,4-b]pyridin-3-yl-phenoxy)-3-(4-pyrimidin-2-yl-piperazin-1-yl)-propan-2-ol] | 8.4 | –
